Results reported in US9169254B2, “Spiroimidazolone derivative” (Chugai Seiyaku Kabushiki Kaisha, priority 2009, dated 2015).

Molecular target: T1, human PTH1 receptor (Homo sapiens, UniProt Q03431)
T1 sequence (Q03431 27-593): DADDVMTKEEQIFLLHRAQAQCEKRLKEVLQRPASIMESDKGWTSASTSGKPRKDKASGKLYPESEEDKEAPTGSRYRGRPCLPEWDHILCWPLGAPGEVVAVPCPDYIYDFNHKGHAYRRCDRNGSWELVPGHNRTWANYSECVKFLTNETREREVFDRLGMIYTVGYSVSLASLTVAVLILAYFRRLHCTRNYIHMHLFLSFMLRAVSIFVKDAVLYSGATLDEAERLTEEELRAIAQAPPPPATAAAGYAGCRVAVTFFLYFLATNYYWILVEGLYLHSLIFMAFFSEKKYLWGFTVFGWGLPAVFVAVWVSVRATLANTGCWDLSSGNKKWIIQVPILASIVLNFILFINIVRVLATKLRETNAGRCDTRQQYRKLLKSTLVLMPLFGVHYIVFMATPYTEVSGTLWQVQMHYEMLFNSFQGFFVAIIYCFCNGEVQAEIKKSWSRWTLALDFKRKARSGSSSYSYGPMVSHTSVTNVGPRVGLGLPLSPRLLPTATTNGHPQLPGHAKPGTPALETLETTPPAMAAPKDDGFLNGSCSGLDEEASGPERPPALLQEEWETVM
Assay: In vitro cAMP signal activity in HKRK-B7 cells (LLC-PK1 cells overexpressing the human PTH1 receptor)
Format: cell-based
Details: HKRK-B7 cells; compound at 1×10^−3 M; cAMP produced as percentage of that produced by hPTH(1-34) at 100 nM

cAMP production activity (%) | Structure (SMILES)
99 | Cc1cc(N(C)C(N)=O)cc(C)c1CCS(=O)(=O)N1CCC2(CC1)N=C(CCCCCC(F)(F)C(F)(F)F)NC2=O [Compound 1043, 1-(3,5-Dimethyl-4-{2-[4-oxo-2-(6,6,7,7,7-pentafluoro-heptyl)-1,3,8-triaza-spiro[4.5]dec-1-ene-8-sulfonyl]-ethyl}-phenyl)-1-methyl-urea]
86 | CC(=O)N(C)c1cc(C)c(CCS(=O)(=O)N2CCC3(CC2)N=C(CCCCCCC(F)(F)F)NC3=O)c(C)c1 [Compound 1044, N-(3,5-Dimethyl-4-{2-[4-oxo-2-(7,7,7-trifluoro-heptyl)-1,3,8-triaza-spiro[4.5]dec-1-ene-8-sulfonyl]-ethyl}-phenyl)-N-methyl-acetamide]
106 | Cc1cc(N(C)C(N)=O)cc(C)c1CCS(=O)(=O)N1CCC2(CC1)N=C(CCCCCCC(F)(F)F)NC2=O [Compound 1045, 1-(3,5-dimethyl-4-{2-[4-oxo-2-(7,7,7-trifluoro-heptyl)-1,3,8-triaza-spiro[4.5]dec-1-ene-8-sulfonyl]-ethyl}-phenyl)-1-methyl-urea]
101 | Cc1cc(N(C)C(N)=O)cc(C)c1CCS(=O)(=O)N1CCC2(CC1)N=C(CCCCCCCCC(F)(F)F)NC2=O [Compound 1046, 1-(3,5-dimethyl-4-{2-[4-oxo-2-(9,9,9-trifluoro-nonyl)-1,3,8-triaza-spiro[4.5]dec-1-ene-8-sulfonyl]-ethyl}-phenyl)-1-methyl-urea]
82 | CC(=O)N(C)c1cc(C)c(CCS(=O)(=O)N2CCC3(CC2)N=C(CCCCCCCCC(F)(F)F)NC3=O)c(C)c1 [Compound 1047, N-(3,5-dimethyl-4-{2-[4-oxo-2-(9,9,9-trifluoro-nonyl)-1,3,8-triaza-spiro[4.5]dec-1-ene-8-sulfonyl]-ethyl}-phenyl)-N-methyl-acetamide]
96 | Cc1cc(N(C)C(N)=O)cc(C)c1CCS(=O)(=O)N1CCC2(CC1)N=C(C1(CCCC(F)(F)F)CC1)NC2=O [Compound 1048, 1-[3,5-Dimethyl-4-(2-{4-oxo-2-[1-(4,4,4-trifluoro-butyl)-cyclopropyl]-1,3,8-triaza-spiro[4.5]dec-1-ene-8-sulfonyl}-ethyl)-phenyl]-1-methyl-urea]
92 | Cc1cc(N(C)C(N)=O)cc(C)c1CCS(=O)(=O)N1CCC2(CC1)N=C(C1CCCC(C(F)(F)F)C1)NC2=O (centres unmarked) [Compound 1050, 1-(3,5-Dimethyl-4-{2-[4-oxo-2-(3-trifluoromethyl-cyclohexyl)-1,3,8-triaza-spiro[4.5]dec-1-ene-8-sulfonyl]-ethyl}-phenyl)-1-methyl-urea]
85 | Cc1cc(N(C)C(N)=O)cc(C)c1CCS(=O)(=O)N1CCC2(CC1)N=C(C1C[C@@H](C)[C@@H](C)C1)NC2=O (stereo partly drawn) [Compound 1051, 1-(4-{2-[2-(cis-3,4-dimethyl-cyclopentyl)-4-oxo-1,3,8-triaza-spiro[4.5]dec-1-ene-8-sulfonyl]-ethyl}-3,5-dimethyl-phenyl)-1-methyl-urea]
62 | Cc1cc(N(C)C(N)=O)cc(C)c1CCS(=O)(=O)N1CCC2(CC1)N=C(C(C1CC1)C1CC1)NC2=O [Compound 1052, 1-{4-[2-(2-dicyclopropylmethyl-4-oxo-1,3,8-triaza-spiro[4.5]dec-1-ene-8-sulfonyl)-ethyl]-3,5-dimethyl-phenyl}-1-methyl-urea]
70 | Cc1cc(N(C)C(N)=O)cc(C)c1CCS(=O)(=O)N1CCC2(CC1)N=C(C1C3CCCC1CCC3)NC2=O (centres unmarked) [Compound 1053, 1-{4-[2-(2-bicyclo[3.3.1]non-9-yl-4-oxo-1,3,8-triaza-spiro[4.5]dec-1-ene-8-sulfonyl)-ethyl]-3,5-dimethyl-phenyl}-1-methyl-urea]
80 | Cc1cc(N(C)C(N)=O)cc(C)c1CCS(=O)(=O)N1CCC2(CC1)N=C(C1C[C@H]3CC[C@@H](C1)C3)NC2=O (stereo partly drawn) [Compound 1054, 1-{4-[2-((1R,5S)-2-bicyclo[3.2.1]oct-3-yl-4-oxo-1,3,8-triaza-spiro[4.5]dec-1-ene-8-sulfonyl)-ethyl]-3,5-dimethyl-phenyl}-1-methyl-urea]
84 | Cc1cc(N(C)C(N)=O)cc(C)c1CCS(=O)(=O)N1CCC2(CC1)N=C(C1CCC(C)C1)NC2=O (centres unmarked) [Compound 1055, 1-(3,5-dimethyl-4-{2-[2-(3-methyl-cyclopentyl)-4-oxo-1,3,8-triaza-spiro[4.5]dec-1-ene-8-sulfonyl]-ethyl}-phenyl)-1-methyl-urea]
94 | Cc1cc(N(C)C(N)=O)cc(C)c1CCS(=O)(=O)N1CCC2(CC1)N=C(C1C3CCC1CC3)NC2=O (centres unmarked) [Compound 1056, 1-{4-[2-(2-bicyclo[2.2.1]hept-7-yl-4-oxo-1,3,8-triaza-spiro[4.5]dec-1-ene-8-sulfonyl)-ethyl]-3,5-dimethyl-phenyl}-1-methyl-urea]
100 | CCCCCC[C@H]1CCCC[C@@H]1C1=NC2(CCN(S(=O)(=O)CCc3c(C)cc(N(C)C(N)=O)cc3C)CC2)C(=O)N1 [Compound 1057, 1-(4-{2-[2-((1S,2S)-2-hexyl-cyclohexyl)-4-oxo-1,3,8-triaza-spiro[4.5]dec-1-ene-8-sulfonyl]-ethyl}-3,5-dimethyl-phenyl)-1-methyl-urea]
133 | Cc1cc(N(C)C(N)=O)cc(C)c1CCS(=O)(=O)N1CCC2(CC1)N=C(C1CCC3(CC1)CC3)NC2=O [Compound 1058, 1-{3,5-dimethyl-4-[2-(4-oxo-2-spiro[2.5]oct-6-yl-1,3,8-triaza-spiro[4.5]dec-1-ene-8-sulfonyl)-ethyl]-phenyl}-1-methyl-urea]
116 | Cc1cc(N(C)C(N)=O)cc(C)c1CCS(=O)(=O)N1CCC2(CC1)N=C(C1CCC(=C(F)F)CC1)NC2=O (centres unmarked) [Compound 1059, 1-(4-{2-[2-(4-Difluoromethylene-cyclohexyl)-4-oxo-1,3,8-triaza-spiro[4.5]dec-1-ene-8-sulfonyl]-ethyl}-3,5-dimethyl-phenyl)-1-methyl-urea]
58 | CC(=O)Nc1ccc(CCS(=O)(=O)N2CCC3(CC2)N=C(C2CCC(CC(F)F)CC2)NC3=O)c(C)c1 (centres unmarked) [Compound 1060, N-[4-(2-{2-[4-(2,2-Difluoro-ethyl)-cyclohexyl]-4-oxo-1,3,8-triaza-spiro[4.5]dec-1-ene-8-sulfonyl}-ethyl)-3-methyl-phenyl]-acetamide]
55 | CC(=O)Nc1ccc(CCS(=O)(=O)N2CCC3(CC2)N=C([C@H]2CC[C@H](CCF)CC2)NC3=O)c(C)c1 [Compound 1061, N-[4-(2-{2-[4-(2-fluoro-ethyl)-cyclohexyl]-4-oxo-1,3,8-triaza-spiro[4.5]dec-1-ene-8-sulfonyl}-ethyl)-3-methyl-phenyl]-acetamide]
65 | CCCC[C@]1(F)CC[C@@H](C2=NC3(CCN(S(=O)(=O)CCc4ccc(NC(C)=O)cc4C)CC3)C(=O)N2)CC1 [Compound 1062, N-(4-{2-[2-(4-butyl-4-fluoro-cyclohexyl)-4-oxo-1,3,8-triaza-spiro[4.5]dec-1-ene-8-sulfonyl]-ethyl}-3-methyl-phenyl)-acetamide]
72 | CC(=O)Nc1ccc(CCS(=O)(=O)N2CCC3(CC2)N=C(C2CCC(/C=C/CF)CC2)NC3=O)c(C)c1 (centres unmarked) [Compound 1063, N-[4-(2-{2-[4-((E)-3-fluoro-propenyl)-cyclohexyl]-4-oxo-1,3,8-triaza-spiro[4.5]dec-1-ene-8-sulfonyl}-ethyl)-3-methyl-phenyl]-acetamide]
